US20230272077A1, “PD-1 SIGNAL INHIBITOR COMBINATION THERAPY” (KYOTO UNIVERSITY, priority 2015, published 2023)
Entries after “also recorded” stand apart in the source; their conditions may differ.

Experiments:
[1] = tested on: CD8+ T cells
Procedure: FIG. 6. […] Draining lymph node (DLN) cells on day 14 were stained with anti-CD8, -CD62L, and -CD44 antibodies, and then CD8^+ T cells were gated. P1 to P3 populations were defined based on the intensities of CD62L and CD44 (Upper). The absolute cell numbers of P1 to P3 in each group were calculated. […] Representative FACS profiles of P1 to P3 (Upper). Representative FACS profiles of the P3 population stained with each mitochondrial dye in each group (Middle). MFI of P1 to P3 stained with each dye was compared between treated groups. Colors correspond to the P1 to P3 populations. […] CD45^+ CD8^+ T cells were gated, and their CD62L and CD44 phenotypes were analyzed (Left). The frequencies of CD8^+ T cells in CD45^+ T cells and the absolute numbers of CD45^+ CD8^+ T cells were compared between groups (Right). Data represent the means±SEM of five mice. *p<0.05, **p<0.01, one-way ANOVA analysis. FACS data are representative of five mice in each group.
(§1) For analyzing draining lymph nodes, cells from axillary, brachial, and inguinal lymph nodes on the right side of tumor-inoculated mice were harvested and mixed. Averaged cell numbers per one lymph node were used as absolute cell numbers. For tumor analysis, tumor tissues were minced into 2- to 3-mm pieces with scissors and digested with collagenase type IV (Thermo Fisher Scientific) using a gentle MACS Dissociator (Miltenyi Biotec). The numbers of tumor cells per mg were used as absolute numbers. Tumor cells were isolated from digested tumor tissues using a Tumor Cell Isolation Kit, mouse (Miltenyi Biotec). This kit purifies tumor cells by excluding lymphocytes, red blood cells, fibroblasts, endothelial cells and tumor-associated stromal cells. The resultant tumor cell population was further isolated/purified with FACS Aria (BD Biosciences).
The following antibodies recognizing the indicated antigens were used: CD44 (1M7), CD45.2 (104), CD45.1 (A20), CD8 (53-6.7), CD62L (MEL-14), T-bet (4B/O) and IFN-7 (XMG1.2), MHC class I (AF6-88.5), CD155 (Tx56) and VISTA (MIH63) from BioLegend; p-AMPK (EPR5683) from Ancam; p-mTOR (MRRBY), Eomes (Danllmag) and PD-L1 (M1H5) from eBioscience. All flow cytometry experiments were performed on a FACS Canto II (BD Biosciences) and analyzed using FlowJo software (FLOWJO, LLC). For assessment of intracellular phosphoproteins, cells were permeabilized with 0.5% Triton-X and fixed with 1.5% PFA before staining. Determination of mitochondrial mass, membrane potential, mitochondrial superoxide and cellular ROS was performed using MitoTracker Green, Mito-Tracker Deep Red, MitoSOX Red, and CellROX Green reagents, respectively (all from Life Technologies). […]

[2] = tested on: mTOR and its associated proteins S6K and 4EBP1; assay: Western blotting of DLN CD8+ T cells, mTOR pathway; assay type: in vivo, mouse; details: CD8+ T cells from mice treated with PD-L1 antibody and reagent
Procedure: FIG. 7. […] Phosphorylation of AMPK, ACC, mTOR and S6K and the expression of SIRT1 and 4EBP1 were analyzed by Western blotting. b) MC38-bearing mice were treated with PD-L1 antibody in combination with AMPK activator (A769662) and/or mTOR activator (MHY1485) according to the same schedule as shown in FIG. 3b.
CD8^+ T cells were isolated using mouse CD8 Microbeads (Miltenyi Biotec). After washing with PBS twice, 2×10^6 cells were solubilized in a lysis buffer containing 30 mM Tris-HCl (pH.7.4), 150 mM NaCl, 10% glycerol, 0.1% SDS, 1% Triton-X-100, 0.05% Na-Doc, 5 mM EDTA (pH.8.0), protease inhibitor mixture (Roche Molecular Biochemicals) and phosphatase inhibitors (Nacalai Tesque). After measurement of protein concentrations by DC protein assay (Bio-Rad), 4 μg of proteins was mounted on 4 to 20% gradient Mini-PROTEAN TGX Gels (Bio-Rad) and electroblotted onto nitrocellulose membranes, which were then incubated in a blocking buffer of TBS containing 1% BSA. Primary antibody incubations were carried out overnight at 4° C. in blocking buffer. After washing, secondary antibody incubations were carried out at room temperature for 40 min in blocking buffer. Blots were developed with enhanced chemiluminescence (Amersham Pharmacia). […]

[3] = tested on: T-bet and Eomes; assay: T-bet and Eomes expression by flow cytometry in DLN CD8+ T cells; assay type: in vivo, mouse; details: combined with PD-L1 antibody
Procedure: (§2) FIG. 15. […] Data represent the means±SEM of five mice. *p<0.05, **p<0.01, one-way ANOVA.
(§3) The following antibodies recognizing the indicated antigens were used: CD44 (1M7), CD45.2 (104), CD45.1 (A20), CD8 (53-6.7), CD62L (MEL-14), T-bet (4B/O) and IFN-7 (XMG1.2), MHC class I (AF6-88.5), CD155 (Tx56) and VISTA (MIH63) from BioLegend; p-AMPK (EPR5683) from Ancam; p-mTOR (MRRBY), Eomes (Danllmag) and PD-L1 (M1H5) from eBioscience. All flow cytometry experiments were performed on a FACS Canto II (BD Biosciences) and analyzed using FlowJo software (FLOWJO, LLC). For assessment of intracellular phosphoproteins, cells were permeabilized with 0.5% Triton-X and fixed with 1.5% PFA before staining. Determination of mitochondrial mass, membrane potential, mitochondrial superoxide and cellular ROS was performed using MitoTracker Green, Mito-Tracker Deep Red, MitoSOX Red, and CellROX Green reagents, respectively (all from Life Technologies). These dyes were added to cells to a final concentration of 0.125 μM, 0.125 μM, 5.0 μM and 0.625 μM, respectively, and incubated at 37° C. in a 5% CO2 humidified incubator for 30 min.

[4] = tested on: IFN-γ; assay: Intracellular IFN-γ staining of CD8+ T cells from digested tumor tissues; assay type: in vivo, mouse; details: CD8+ T cells in tumors; combined with PD-L1 antibody
Procedure: as §2, §3

[5] = tested on: tumor cells; assay: Phenotypic and transcription profile analysis of tumor cells from mice treated with reagent alone; design: species or system mouse; details: tumor cells from mice treated with reagent alone in vivo
Source text: FIG. 12. […] After enzymatic digestion, tumor cells were sorted with a cell isolation kit capable of excluding non-tumor cells. The isolated tumor cells were further purified with Aria and used in the following experiments. b) Tumor cells were stained with antibodies targeting PD-L1, MHC class I, CD155 (ligand of TIGIT), and VISTA or with dyes for mitochondrial mass, membrane potential, and superoxide. c) Expression levels of genes associated with mitochondrial energy metabolism and apoptosis were examined using RT^2 profiler PCR Kit.
as §1, with “Biosciences). […]” for “Biosciences).”

N#CC(C#N)=NNc1ccc(OC(F)(F)F)cc1 [FCCP, carbonyl cyanide p-trifluoromethoxyphenylhydrazone] was tested, and the “mitochondrial membrane potential and ROS in P3 population” value ([1]; MC38-bearing mice, FCCP combined with PD-L1 antibody) was “significantly augmented”, the “absolute number and proportion of effector CD8+ T cells (CD62L- CD44+, P3) in DLNs” value ([1]; MC38-bearing mice, PD-L1 antibody + FCCP vs anti-PD-L1 antibody alone) was “significantly increased; also recorded: Increase” and the “numbers of naive T cells (P1) and central memory T cells (P2) in DLNs” value ([1]; MC38-bearing mice, PD-L1 antibody alone, or addition of FCCP) was “no further increase”. The “toxic effects such as decrease in mitochondrial mass or fall in membrane potential” value ([1]; at the dose used (1.2 mg/kg)) was “did not have toxic effects”, the “activation of mTOR and its associated proteins S6K and 4EBP1” value [2] was “also found to be activated” and the Eomes expression [3] was “not Eomes expression”. For the same compound, the T-bet expression [3] was “increased T-bet expression; also recorded: up-regulated”, the IFN-γ production [4] was “increased; also recorded: up-regulated” and the “changes in immune-regulatory surface markers and transcriptional profiles of tumor cells” value [5] was “did not show a significant difference; also recorded: little effect on tumor cells in vivo”.
